The nature of data set [1]: Assay for determination of stability in rat liver lysosomes. The note with it: over 24 h, 37° C. The class given is in vitro ADME. The method, then: To determine the lysosomal stability of compounds A and B, lysosomal enzymes were isolated from rat liver cells. Compounds A and B were each added to this lysosomal extract in order to examine stability under lysosomal conditions. The proteolytic enzyme legumain is expressed only in a very small amount, if any, in rat liver lysosomes (Chen, J-M. et al 1997). To monitor the enzymatic activity of the lysosomal enzymes, a cathepsin-specific substrate was added.
First of all, a fresh rat liver was removed, weighed and immediately placed on ice in homogenization medium (0.25 M sucrose, 1 mM EDTA, 10 mM HEPES, pH7). The liver was comminuted and a change of medium was undertaken. The rat livers were homogenized with 4 times the amount of the rat liver weight at 750 rpm in a Potter (B. Braun). The homogenate was centrifuged at 1000 g for 10 min and the supernatant was filtered. In the next step, with the aid of an ultracentrifuge, the “light mitochondrial fraction” (LMF) was centrifuged out of the supernatant at 26 500 g over 20 min. […]
The sucrose was added from a 2.3 M stock solution of the particular percentage. […] To monitor the lysis, the protein content of the lysed lysosomal fraction was monitored with the aid of a BCA assays (Pierce BCA protein assay kit). […] For the RP-HPLC LCMS analysis, the samples were diluted with 300 μl of 10 mM ammonium acetate buffer (pH 6.8) and analysed.

The nature of data set [2]: Assay for determination of stability in rat plasma. It counts as in vitro ADME. The note with it: 1 μg/ml, 37° C., 24 h. On the procedure:
To examine the stability of compounds A and B, 1 ml of rat plasma in a 1.5 ml Eppendorf tube in each case was equilibrated to 37° C. on an Eppendorf shaker. A stock solution (9 acetonitrile/1 DMSO) having a concentration of 100 μg/ml for compound A and compound B was prepared. 10 μl in each case of the stock solution were pipetted into 1 ml of equilibrated rat plasma, so as to give a concentration of 1 μg/ml.
The samples were kept at 450 rpm and 37° C. for 24 h. At each of the sampling times of 0, 0.25 h, 0.5 h, 1 h, 2 h, 4 h, 6 h and 24 h, 50 μl were taken and pipetted into 150 μl of methanol. Internal standard was included in the initial charge of methanol at a concentration of 0.05 μg/ml. After brief vortexing, 300 μl of 10 mM ammonium acetate buffer (pH 6.8) were added and centrifuged at 1881 g for 10 min. The samples were then analysed by means of RP-HPLC analysis and by LC-MS analysis.

Data set [3] relates to SK-HEP-1: human liver cell cancer line. Put plainly: MTT assay on SK-HEP-1. The class given is cell-based. The note with it: SK-HEP1, 96 h, growth inhibition, 96 h incubation. On the procedure: The analysis of the cytotoxic effects of the ADCs was carried out with various cell lines:
The cells were cultivated by the standard method as stated by the American Tissue Culture Collection (ATCC) or the Leibniz-lnstitut DSMZ-Deutsche Sammlung von Mikroorganismen und Zellkulturen GmbH (DSMZ) for the cell lines in question.
The cells were then incubated in an incubator at 37° C. and 5% carbon dioxide. […] To this end, the MTT reagent was incubated with the cells for 4 h, followed by lysis of the cells overnight by addition of the detergent. […] The measured data were used to calculate the ICo50 of the growth inhibition using the DRC (dose response curve). The proliferation of cells which were not treated with test substance but were otherwise identically treated was defined as the 100% figure.
On the technique in general: Tetrazolium assays rely on reduction of a dye to a coloured formazan, in cell work by metabolically active cells.

As a reminder, the IC50 is the point on the concentration scale where inhibition reaches its midpoint. A lower IC50 goes with inhibition by little substance.

Turning to `CNC(=O)[C@H](CCN(C(=O)CO)[C@@H](c1cc(-c2cc(F)ccc2F)cn1Cc1ccccc1)C(C)(C)C)NC(=O)[C@H](CC(N)=O)NC(=O)[C@@H](C)NC(=O)[C@H](C)NC(=O)Cc1ccncc1` [Example R3r-LDL, N-(Pyridin-4-ylacetyl)-L-alanyl-D-alanyl-N^1-[(2S)-4-[{(1R)-1-[1-benzyl-4-(2,5-difluorophenyl)-1H-pyrrol-2-yl]-2,2-dimethylpropyl}(glycoloyl)amino]-1-(methylamino)-1-oxobutan-2-yl]-L-aspartamide], the “stability in rat liver lysosomal extract” value in data set [1] is listed as “stable”. Also, the “stability in rat plasma” value in data set [2] is “stable over 24 h”. The IC50 in data set [3] was 0.283 µM.

Values taken from patent US11685714B2, “Prodrugs of cytotoxic active agents having enzymatically cleavable groups” (BAYER PHARMA AKTIENGESELLSCHAFT, priority 2016, dated 2023).
